Reference: PMC9304322, “Targeting retinoic acid receptor alpha-corepressor interaction activates chaperone-mediated autophagy and protects against retinal degeneration” (Nature Communications, 2022)
Where “and” joins values, the source holds several entries; their conditions need not be identical. Identical values can stand only once.

Key:
[1] = tested on: NIH3T3 cells control (empty vector) or knock-down (KD) for N-CoR1; assay: CMA activity in NIH3T3 control or knock-down for N-CoR1; format: cell-based, mouse; parameters: CMA activity: unit not given here; conditions: for activating effect on CMA upon knock-down of NCOR1: 20μM for 24 h; for CMA activity: Fig. 2h, individual replicate values
Method: NIH3T3 mouse fibroblasts (CRL-1658), CaCo2 cells human colorectal adenocarcinoma (HTB-3), and the N2a neuroblastoma cell line (CCL-131) were obtained from the American Type Culture Collection and were validated by genomic PCR. Primary human fibroblasts (GM01651) were from Coriell Repository. Cells were cultured to full confluence in a 37 °C incubator with 5% CO2 in complete Dulbecco’s modified Eagle’s medium (DMEM, Sigma #D5030) supplemented with 10% heat-inactivated newborn calf serum (HyClone #SH30401.02HI), 1% penicillin/streptomycin/fungizone (Invitrogen, #10072322). All the cell lines were tested for mycoplasma contamination using DNA staining protocol with Hoechst 33258 dye and none of them was found positive. Knock-down of Ncor1 was done using lentiviral mediated shRNA (SHCLNG-NM_011308) from the Sigma Mission library following standard procedures. The efficiency of knock-down was tested by immunoblot. Cell viability was measured using the CellTiter-Blue kit (Promega, #G9241) 24 h after the addition of the different stressors according to the manufacturer’s instructions. All cell lines were validated by genomic PCR.
Cells were transduced with lentivirus carrying the KFERQ-PS-Dendra reporter as before. Cells were photoactivated by exposure to a 3.5 mA (current constant) light emitting diode (LED: Norlux, 405 nm) for 3 min and then plated in glass-bottom 96 well plates. At the desired times, cells were fixed with 4% PFA and imaged using high-content microscopy (Operetta system, Perkin Elmer). Images were quantified using the manufacturer’s software in a minimum of 1,200 cells in 9 independent fields per well. […] This was particularly important in the case of primary human cells where the efficiency of transduction was ~65%. To avoid confounding effects for drug-induced changes in cell volume or adherence to the plate that could bring a fraction of the cells per field outside of focus, we set a threshold to count only […] that have at least 1/10 of the average number of […] detected in the untreated wells for each cell type (3–4 puncta/cell in the case of NIH3T3 and N2a cells and 5 puncta/cell in primary human fibroblasts).

[2] = In vitro stability in human liver microsomes; format: in vitro ADME; conditions: in words
Method: In vitro solubility in the following conditions A) HBSS/HEPES 10 mM/BSA 0.1% pH 6 B) HBSS/HEPES 10 mM/BSA 0.1% pH 7.4 C) TRIS/BSA 0.1% PBS (pH 7.4 and at indicated doses were measured by Nephelometry using the NEPHELOstar Galaxy apparatus (BMG Lab Technologies). In vitro stability in human, mouse and rat liver microsomes and permeability using a bidirectional permeability assay with CaCo-2 cells (pH 6.5/7.4) assays were performed with standard methodology and analyzed by LC-MS/MS. at SIMM-SERVIER joint Biopharmacy Laboratory. ADME properties for CA39 and CA77 were predicted by QikProp (Schrödinger, LLC, Releases 2016-2020) software.

[3] = Pharmacokinetic analysis, plasma and brain;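 for Fig. 3b level, single animals 1-3: brain concentration in ng/g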; format: in vivo, ICR (CD-1) male mice; parameters: Fig. 3a level, single animals 1-3 / Fig. 3b level, single animals 1-3: unit not given here; conditions: for Fig. 3a level, single animals 1-3 / Fig. 3b level, single animals 1-3: IV, Time 0.083 h; for predicted brain concentration: intraperitoneal 30 mg/kg bw, converted from Cmax or AUC (CA39: AUC and extended half-life)
[4] = molecular target: T1, RARα and the N-CoR1 peptide (Homo sapiens, UniProt P10276); assay: Fluorescence polarization binding assay, RARα LBD and FITC-N-CoR1 peptide; conditions: 10 μΜ compound
T1 construct: human RARα (residues 176-421); His6-SUMO (N, cleaved yes); made in house; host or cells: Escherichia coli BL21(DE3) RIL
Method: The ligand binding domain (LBD) of the human RARα (residues 176-421) was fused to a preceding His6-SUMO tag separated by a ubiquitin-like protease (ULP1) cleavage site and was expressed in Escherichia coli BL21(DE3) RIL cell strain. Cells were grown at 37 °C in LB medium supplemented with 50 µg/mL kanamycin until OD600 reached about 0.8. Expression of T7 polymerase was induced by addition of isopropyl-b-d-thiogalactoside (IPTG, #10724815001) to a final concentration of 0.8 mM and cells were incubated at 20 °C overnight. Cell cultures were harvested by centrifugation at 8,000 × g for 15 mins. The cell pellet from 1 liter of LB growth was resuspended in 50 mL lysis buffer (20 mM Tris-HCl pH 8, 500 mM NaCl, 25 mM imidazole) supplemented with one complete™, EDTA-free protease inhibitor tablet (Roche Applied Science, #11873580001). The suspension was lysed using a high pressure homogenizer and centrifuged at 35,000 × g at 4 °C for 45 minutes. […]
The fluorescein-tagged peptide of N-CoR1, FITC-Ahx-[…] […] Fluorescence polarization assays (FPA) were performed using established procedures. […] Fluorescence polarization was measured at 30 min on a F200 PRO microplate reader (TECAN) with the excitation wavelength set at 470 nm and emission measured at 530 nm. EC50 values were calculated by nonlinear regression analysis of competitive binding curves using GraphPad Prism software.

T1 sequence (P10276 176-421, other chains not shown): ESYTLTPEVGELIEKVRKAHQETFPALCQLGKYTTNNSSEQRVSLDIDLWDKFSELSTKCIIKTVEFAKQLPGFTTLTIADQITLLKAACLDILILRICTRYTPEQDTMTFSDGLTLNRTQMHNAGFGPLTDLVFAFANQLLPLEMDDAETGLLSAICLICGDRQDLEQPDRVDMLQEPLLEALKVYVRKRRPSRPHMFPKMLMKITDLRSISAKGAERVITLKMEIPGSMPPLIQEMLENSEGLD

Structure (SMILES): Clc1ccc2c(c1)OCC(c1ccc(-c3ccccc3)cc1)=N2 [CA39]
- activating effect on CMA upon knock-down of NCOR1 [1]: completely ablated
- CMA activity ([1]; Ctr cells): 28.3 and 30.0 and 31.5
- CMA activity ([1]; NCOR(-) (NCoR1 KD) cells): 3.7 and 5.0 and 5.1
- metabolic stability with human liver microsomes [2]: high to intermediate
- Fig. 3a level, single animals 1-3 [3]: 52.0116 and 70.6516 and 60.713
- Fig. 3b level, single animals 1-3 [3]: 52.0116 and 70.6516 and 60.713
- predicted brain concentration [3]: 10 to 20 µM
- N-CoR1 peptide binding to RARα in fluorescence polarization assays [4]: enhanced N-CoR1 peptide binding to RARα

Structure (SMILES): CC(=O)Nc1ccc(C2=Nc3ccc(Cl)cc3OC2)cc1 [CA77]
- activating effect on CMA upon knock-down of NCOR1 [1]: completely ablated
- CMA activity ([1]; Ctr cells): 22.4 and 17.9 and 26.0
- CMA activity ([1]; NCOR(-) (NCoR1 KD) cells): 4.3 and 4.0 and 4.8
- metabolic stability with human liver microsomes [2]: high to intermediate
- Fig. 3a level, single animals 1-3 [3]: 52.9 and 41.4 and 14.2
- Fig. 3b level, single animals 1-3 [3]: 3773 and 2943 and 693
- predicted brain concentration [3]: 5 to 20 µM
- N-CoR1 peptide binding to RARα in fluorescence polarization assays [4]: enhanced N-CoR1 peptide binding to RARα
